Source: PubChem BioAssay (NCI)
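Method: 48-hour compound exposure of cells in 96-well plates, five concentrations, linear interpolation of endpoints. The concentration for full growth arrest is given as TGI.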

Tests used:
Assay in all cases: inhibition of tumour cell growth, NCI panel, 48 h
[1] = test system: OVCAR-4 ovarian
[2] = test system: OVCAR-8 ovarian
[3] = test system: HOP-62 NSCLC
[4] = test system: U251 CNS
[5] = test system: COLO 205 colon
[6] = test system: NCI-H522 lung
[7] = test system: RXF 393 renal
[8] = test system: T-47D breast
[9] = test system: UACC-62 melanoma
[10] = test system: A549 NSCLC
[11] = test system: RPMI-8226 leukemia
[12] = test system: SR leukemia
[13] = test system: SK-MEL-2 melanoma
[14] = test system: UO-31 renal
[15] = test system: KM12 colon
[16] = test system: SK-MEL-5 melanoma
[17] = test system: MOLT-4 leukemia
[18] = test system: SF-268 CNS
[19] = test system: MALME-3M melanoma
[20] = test system: CAKI-1 renal

Row | Compound | TGI [1] [µM] | TGI [2] [µM] | TGI [3] [µM] | TGI [4] [µM] | TGI [5] [µM] | TGI [6] [µM] | TGI [7] [µM] | TGI [8] [µM] | TGI [9] [µM] | TGI [10] [µM] | TGI [11] [µM] | TGI [12] [µM] | TGI [13] [µM] | TGI [14] [µM] | TGI [15] [µM] | TGI [16] [µM] | TGI [17] [µM] | TGI [18] [µM] | TGI [19] [µM] | TGI [20] [µM]
1 | CC(=O)N(CCCCNC(=O)C(F)(F)F)CCCNC(=O)C(F)(F)F | > 100 | > 100 | > 100 | > 100 | > 100 | > 100 | > 100 | > 100 | > 100 | > 100 | > 100 | > 100 | > 100 | > 100 | > 100 | > 100 | > 100 | > 100 | – | –
2 | O=c1oc2c/c(=C\c3ccccn3)c(=O)c3cccc1c3-2 | > 100 | 54.4 | 39.2 | – | > 100 | > 100 | 37.7 | > 100 | > 100 | – | > 100 | > 100 | – | – | > 100 | > 100 | > 100 | > 100 | > 100 | > 100
3 | Cc1ccc(S(=O)(=O)N/N=C2\CC(C)OC3=C2CCCCCC3)cc1 (stereo unspecified) | 35.6 | 45.2 | 35.1 | – | 37.1 | – | 32.4 | > 100 | 30.6 | 34.4 | 82.5 | 60.4 | – | 31.2 | 37.4 | 31.9 | 55.9 | 38.4 | 39.5 | 44.6
4 | O=C(O)c1nc2ccccc2nc1NCc1ccc(F)cc1 | – | > 100 | > 100 | > 100 | 93.5 | > 100 | > 100 | > 100 | > 100 | > 100 | > 100 | > 100 | > 100 | > 100 | > 100 | > 100 | > 100 | > 100 | – | > 100
5 | Cn1ccoc1=Nc1ccc(Cl)c(Cl)c1 | > 10 | > 10 | > 10 | > 10 | > 10 | > 10 | – | > 10 | > 10 | > 10 | > 10 | > 10 | – | > 10 | > 10 | > 10 | > 10 | > 10 | > 10 | > 10
6 | OCCCCCCCCCCCOc1ccc(C2OCC3(CC=CCC3)CO2)cc1 (stereo unspecified) | 34 | 43.1 | 35.9 | 33.2 | 46.8 | 23.4 | – | 31 | 32.8 | 45.7 | > 100 | 17.1 | > 100 | 40.9 | 28.7 | 80.2 | > 100 | 40.9 | 43.4 | 31.1
7 | CNN1C(=O)c2c(C)c(C)c(C#N)c(N)c2C1=O | > 100 | > 100 | – | > 100 | > 100 | > 100 | > 100 | > 100 | > 100 | > 100 | > 100 | > 100 | > 100 | > 100 | > 100 | > 100 | > 100 | > 100 | > 100 | > 100
8 | C=C1CC(C)(COc2ccc3c(C)cc(=O)oc3c2)OC1=O (stereo unspecified) | 9.06 | 14.8 | 28.4 | 25.4 | 2.86 | 0.491 | – | 3.8 | 4.8 | 23.8 | 2.57 | 4.33 | 5.18 | 18.9 | 17.4 | 3.37 | 4.2 | 20.2 | 6.75 | 7.53
9 | c1ccc2c3nnc(c2c1)SCCCSc1nnc(c2ccccc12)SCCCS3 | 54.3 | > 100 | 52.8 | > 100 | > 100 | > 100 | 94 | > 100 | 88.8 | > 100 | > 100 | > 100 | > 100 | > 100 | > 100 | 72.2 | > 100 | > 100 | 72.1 | –
10 | C#CC(O)/C=C/C(O)CCCC(O)CC#CC(O)C#CC(O)CCCC(O)/C=C/CCCCCC(=O)CCCCCCCCCCCCCC(O)C(O)C#CC(=O)O (stereo unspecified) | 17.9 | > 50 | > 50 | > 50 | > 50 | 18.3 | – | 35 | > 50 | > 50 | > 50 | 26.1 | 47.3 | > 50 | > 50 | > 50 | 26.6 | > 50 | > 50 | > 50
11 | O=C(c1ccccc1)N1CCC(Nc2nccs2)O1 (stereo unspecified) | > 10 | > 10 | > 10 | – | > 10 | > 10 | > 10 | > 10 | – | > 10 | > 10 | > 10 | > 10 | > 10 | – | > 10 | > 10 | > 10 | > 10 | > 10
12 | COC(=O)[C@@H]1COC(C(C)(C)C)N1C(=O)C(c1ccccc1)c1ccccc1 (stereo partly specified) | > 100 | > 100 | > 100 | > 100 | > 100 | > 100 | 38.1 | > 100 | > 100 | > 100 | – | 33.9 | > 100 | > 100 | > 100 | > 100 | > 100 | > 100 | > 100 | > 100
13 | COC(=O)c1ccc(/C=C2\Oc3cc(O)ccc3C2=O)cc1 | > 100 | > 100 | > 100 | > 100 | > 100 | > 100 | 77.3 | > 100 | > 100 | > 100 | > 100 | > 100 | – | > 100 | > 100 | > 100 | > 100 | > 100 | – | > 100
